Measurements as given in the supplement of paper PMC13380429.

Columns and labels:
Settings in all cases: 72 h
[1] = system: Caco-2; experiment: cell viability relative to DMSO; higher = less toxic
[2] = system: Calu-3; experiment: as above
[3] = system: U2OS; experiment: as above
[4] = system: HepG2; experiment: as above
[5] = system: Caco-2; experiment: drug sensitivity score (DSS) for viability; higher = more toxic; extreme values may be limits of the assay
[6] = system: Calu-3; experiment: as above
[7] = system: U2OS; experiment: as above
[8] = system: HepG2; experiment: as above
[9] = system: Caco-2; experiment: relative viability EC50 (midpoint between 100% and the lowest measured viability); higher = less toxic
[10] = system: Calu-3; experiment: as above
[11] = system: U2OS; experiment: as above
[12] = system: HepG2; experiment: as above
[13] = system: Vero E6; experiment: cell viability relative to DMSO; higher = less toxic
[14] = system: Vero E6; experiment: drug sensitivity score (DSS) for viability; higher = more toxic; extreme values may be limits of the assay
[15] = system: Vero E6; experiment: relative viability EC50 (midpoint between 100% and the lowest measured viability); higher = less toxic

| Compound | cell viability ([1]; 1 nM) [%] | cell viability ([1]; 10 nM) [%] | cell viability ([1]; 100 nM) [%] | cell viability ([1]; 1000 nM) [%] | cell viability ([1]; 10000 nM) [%] | cell viability ([2]; 1 nM) [%] | cell viability ([2]; 10 nM) [%] | cell viability ([2]; 100 nM) [%] | cell viability ([2]; 1000 nM) [%] | cell viability ([2]; 10000 nM) [%] | cell viability ([3]; 1 nM) [%] | cell viability ([3]; 10 nM) [%] | cell viability ([3]; 100 nM) [%] | cell viability ([3]; 1000 nM) [%] | cell viability ([3]; 10000 nM) [%] | cell viability ([4]; 1 nM) [%] | cell viability ([4]; 10 nM) [%] | cell viability ([4]; 100 nM) [%] | cell viability ([4]; 1000 nM) [%] | cell viability ([4]; 10000 nM) [%] | drug sensitivity score [5] | drug sensitivity score [6] | drug sensitivity score [7] | drug sensitivity score [8] | relative viability EC50 [9] [µM] | relative viability EC50 [10] [µM] | relative viability EC50 [11] [µM] | relative viability EC50 [12] [µM] | cell viability ([13]; 1 nM) [%] | cell viability ([13]; 10 nM) [%] | cell viability ([13]; 100 nM) [%] | cell viability ([13]; 1000 nM) [%] | cell viability ([13]; 10000 nM) [%] | drug sensitivity score [14] | relative viability EC50 [15] [µM] |
| --- | --- | --- | --- | --- | --- | --- | --- | --- | --- | --- | --- | --- | --- | --- | --- | --- | --- | --- | --- | --- | --- | --- | --- | --- | --- | --- | --- | --- | --- | --- | --- | --- | --- | --- | --- |
| Sc1nc2ccccc2s1 [benzo[d]thiazole-2(3H)-thione] | 96.5 | 101 | 97.1 | 103 | 94.8 | 76.6 | 91.1 | 96.7 | 96.3 | 93.1 | 100 | 103 | 94.8 | 102 | 97.2 | 99.8 | 101 | 119 | 101 | 108 | 0 | 0 | 0 | 0 | > 10 | > 10 | > 10 | > 10 | – | – | – | – | – | – | – |
| Cn1nnnc1SCC1=C(C(=O)O)N2C(=O)[C@@H](NC(=O)[C@H](OC=O)c3ccccc3)[C@H]2SC1 [cefamandole-nafate] | 97.9 | 91.8 | 98.6 | 99.4 | 100 | 90.2 | 108 | 94.4 | 94.1 | 92.6 | – | – | – | – | – | 85.1 | 103 | 100 | 94.3 | 93.3 | 0 | 0 | – | 0 | > 10 | > 10 | – | > 10 | 104 | 104 | 96.9 | 102 | 104 | 0 | > 10 |
| CN1C[C@H](C(=O)N[C@]2(C)O[C@@]3(O)[C@@H]4CCCN4C(=O)[C@H](Cc4ccccc4)N3C2=O)C[C@@H]2c3cccc4[nH]cc(c34)C[C@H]21 [dihydroergotamine] | 102 | 98.3 | 108 | 111 | 99.7 | 102 | 96.9 | 96.3 | 95.1 | 114 | – | – | – | – | – | 109 | 113 | 105 | 109 | 97.3 | 0 | 0 | – | 0 | > 10 | > 10 | – | > 10 | – | – | – | – | – | – | – |
| NC(=O)c1nc(F)cnc1O [favipiravir] | 88.5 | 91.7 | 71.8 | 84.7 | 88.6 | 100 | 105 | 98.5 | 111 | 97.7 | – | – | – | – | – | 102 | 98.8 | 103 | 79.1 | 118 | 0 | 0 | – | 0 | > 10 | > 10 | – | > 10 | 109 | 88.4 | 101 | 96.8 | 103 | 0 | > 10 |
| O=C1c2ccccc2S(=O)(=O)N1CCCCN1CCN(c2ncccn2)CC1 [ipsapirone] | 104 | 90.5 | 90.7 | 98.2 | 97.8 | 106 | 93.9 | 94.3 | 99.6 | 102 | – | – | – | – | – | 96.6 | 102 | 103 | 101 | 103 | 0 | 0 | – | 0 | > 10 | > 10 | – | > 10 | 97 | 102 | 97.2 | 91.8 | 105 | 0 | > 10 |
| CCCCCCCCCCCCCC(=O)OC(C)C [isopropyl-myristate] | 111 | 97 | 110 | 96.9 | 98.6 | 98.3 | 105 | 101 | 105 | 94.1 | – | – | – | – | – | – | – | – | – | – | 0 | 0 | – | – | > 10 | > 10 | – | – | 101 | 104 | 91.5 | 96.8 | 96.4 | 0 | > 10 |
| C[C@@H]1CC(=O)NN=C1c1ccc(NN=C(C#N)C#N)cc1 [levosimendan] | 97.2 | 113 | 98.9 | 96 | 94.6 | 93.7 | 95.8 | 100 | 97.3 | 109 | 99 | 96.8 | 101 | 96.2 | 71.3 | 101 | 102 | 98.5 | 99.6 | 88.4 | 0 | 0 | 1.8 | 0 | > 10 | > 10 | – | > 10 | 95.6 | 102 | 85.7 | 103 | 99 | 0 | > 10 |
| N[C@@H](C(=O)N[C@@H]1C(=O)N2C(C(=O)O)=C(Cl)CC[C@H]12)c1ccccc1 [loracarbef] | 107 | 104 | 95.9 | 91.5 | 98.2 | 88.5 | 102 | 96.6 | 102 | 99 | 93.6 | 102 | 95.7 | 100 | 101 | 100 | 100 | 96.3 | 92 | 97.6 | 0 | 0 | 0 | 0 | > 10 | > 10 | > 10 | > 10 | – | – | – | – | – | – | – |
| O=[N+]([O-])c1cncn1CCN1CCOCC1 [nimorazole] | 102 | 107 | 94.8 | 106 | 96.3 | 102 | 105 | 94.6 | 108 | 93.9 | – | – | – | – | – | 118 | 112 | 97.2 | 98.7 | 117 | 0 | 0 | – | 0 | > 10 | > 10 | – | > 10 | – | – | – | – | – | – | – |
| O=C1NC(O)CCN1[C@@H]1O[C@H](CO)[C@@H](O)[C@H]1O (stereo partly drawn) [tetrahydrouridine] | 101 | 100 | 95.2 | 102 | 99.2 | 108 | 102 | 103 | 101 | 96.2 | – | – | – | – | – | 112 | 101 | 98.1 | 99.1 | 110 | 0 | 0 | – | 0 | > 10 | > 10 | – | > 10 | – | – | – | – | – | – | – |
| Cc1c(C)c2c(c(C)c1OC(=O)CCC(=O)OCCO)CC[C@@](C)(CCC[C@H](C)CCC[C@H](C)CCCC(C)C)O2 [tocofersolan] | 96.8 | 105 | 106 | 101 | 90.2 | 105 | 101 | 105 | 104 | 95.2 | 102 | 105 | 99 | 98.4 | 72.9 | 98.4 | 99.8 | 95 | 103 | 100 | 0 | 0 | 1.3 | 0 | > 10 | > 10 | – | > 10 | 97.8 | 97.9 | 95.9 | 94.9 | 99.3 | 0 | > 10 |
| Cc1cc(C)cc(C(=O)O[C@H]2C[C@H]3CC[C@@H](C2)N3C)c1 [tropanyl-3,5-dimethylbenzoate] | 104 | 97.6 | 92.7 | 102 | 94.9 | 99.7 | 107 | 98.2 | 106 | 93.3 | – | – | – | – | – | 99.5 | 106 | 102 | 92.7 | 93.2 | 0 | 0 | – | 0 | > 10 | > 10 | – | > 10 | 91.8 | 94.3 | 96.3 | 91.7 | 108 | 0 | > 10 |
| CC(=O)N[C@H]1[C@H]([C@H](O)[C@H](O)CO)OC(C(=O)O)=C[C@@H]1NC(=N)N [zanamivir] | 96.4 | 90.9 | 101 | 101 | 106 | 93.8 | 92 | 93.2 | 91.8 | 95.1 | – | – | – | – | – | 93.4 | 95.5 | 95.7 | 110 | 107 | 0 | 0 | – | 0 | > 10 | > 10 | – | > 10 | 94.6 | 98.4 | 90.6 | 98.7 | 109 | 0 | > 10 |
